According to ChEMBL document CHEMBL1649094, “First Selective CYP11B1 Inhibitors for the Treatment of Cortisol-Dependent Diseases” (ACS Med Chem Lett, 2011):

Key:
[1] = species on record: Homo sapiens; assay: Selectivity index, ratio of IC50 for human CYP11B2 to IC50 for human CYP11B1
[2] = target: T1, Steroid 17-alpha-hydroxylase/17,20 lyase (Homo sapiens, UniProt P05093); assay: (§1) Inhibition of human recombinant CYP17 expressed in Escherichia coli at 2 uM using progesterone substrate; conditions: 2 µM
T1 sequence (P05093 whole entry): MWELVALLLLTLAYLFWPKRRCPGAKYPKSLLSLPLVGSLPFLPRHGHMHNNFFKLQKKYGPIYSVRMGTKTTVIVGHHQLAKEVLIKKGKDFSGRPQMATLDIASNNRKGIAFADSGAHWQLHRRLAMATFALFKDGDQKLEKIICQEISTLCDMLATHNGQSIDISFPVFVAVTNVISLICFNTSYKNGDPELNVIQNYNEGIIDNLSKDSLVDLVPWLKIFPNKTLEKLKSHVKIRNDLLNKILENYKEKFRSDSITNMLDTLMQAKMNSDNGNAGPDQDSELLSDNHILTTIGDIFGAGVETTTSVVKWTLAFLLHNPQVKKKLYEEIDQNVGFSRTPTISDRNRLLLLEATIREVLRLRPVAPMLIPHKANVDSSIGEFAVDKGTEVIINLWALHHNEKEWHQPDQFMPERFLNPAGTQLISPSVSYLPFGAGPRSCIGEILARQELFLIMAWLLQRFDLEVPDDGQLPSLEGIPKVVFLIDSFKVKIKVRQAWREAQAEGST

[3] = target: T2, Cytochrome P450 11B2, mitochondrial (Homo sapiens, UniProt P19099); assay: Inhibition of human CYP11B2 expressed in hamster V79MZ cells using 11-deoxycorticosterone substrate; format: cell-based
T2 sequence (P19099 whole entry): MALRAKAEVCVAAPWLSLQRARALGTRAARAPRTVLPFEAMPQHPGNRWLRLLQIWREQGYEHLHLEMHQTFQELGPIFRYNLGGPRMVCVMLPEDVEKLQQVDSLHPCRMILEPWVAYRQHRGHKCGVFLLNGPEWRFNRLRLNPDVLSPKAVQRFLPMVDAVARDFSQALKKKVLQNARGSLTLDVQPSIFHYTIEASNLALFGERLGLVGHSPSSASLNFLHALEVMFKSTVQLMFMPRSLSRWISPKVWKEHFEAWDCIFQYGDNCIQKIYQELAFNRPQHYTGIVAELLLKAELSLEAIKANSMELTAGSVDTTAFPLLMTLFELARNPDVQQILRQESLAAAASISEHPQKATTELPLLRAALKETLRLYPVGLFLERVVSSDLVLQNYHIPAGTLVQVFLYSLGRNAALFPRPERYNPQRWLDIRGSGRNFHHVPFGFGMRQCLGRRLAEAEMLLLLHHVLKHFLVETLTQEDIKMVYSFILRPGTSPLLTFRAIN

[4] = target: T3, CYP19 (aromatase) (Homo sapiens, UniProt P11511); assay: (§2) Inhibition of human placental microsomes CYP19 at 500 nM using androstenedione substrate; conditions: human placental microsomes, probe androstenedione
T3 sequence (P11511 whole entry): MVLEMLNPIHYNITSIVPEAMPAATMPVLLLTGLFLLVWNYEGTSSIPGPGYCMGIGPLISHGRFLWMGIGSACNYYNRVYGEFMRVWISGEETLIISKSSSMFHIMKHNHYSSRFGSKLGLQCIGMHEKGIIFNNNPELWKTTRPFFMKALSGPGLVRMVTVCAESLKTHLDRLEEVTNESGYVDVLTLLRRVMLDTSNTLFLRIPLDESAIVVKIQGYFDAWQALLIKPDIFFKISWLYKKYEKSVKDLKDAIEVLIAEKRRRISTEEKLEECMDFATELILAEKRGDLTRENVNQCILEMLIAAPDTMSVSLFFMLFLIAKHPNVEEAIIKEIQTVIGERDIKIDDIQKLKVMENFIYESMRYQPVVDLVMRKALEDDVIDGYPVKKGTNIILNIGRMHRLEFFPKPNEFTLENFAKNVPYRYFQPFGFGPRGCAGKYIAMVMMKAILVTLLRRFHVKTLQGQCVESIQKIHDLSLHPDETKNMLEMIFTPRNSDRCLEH

[5] = target: T4, Cytochrome P450 11B1, mitochondrial (Homo sapiens, UniProt P15538); assay: Inhibition of human CYP11B1 expressed in hamster V79MZ cells using 11-deoxycorticosterone substrate; format: cell-based
T4 sequence (P15538 whole entry): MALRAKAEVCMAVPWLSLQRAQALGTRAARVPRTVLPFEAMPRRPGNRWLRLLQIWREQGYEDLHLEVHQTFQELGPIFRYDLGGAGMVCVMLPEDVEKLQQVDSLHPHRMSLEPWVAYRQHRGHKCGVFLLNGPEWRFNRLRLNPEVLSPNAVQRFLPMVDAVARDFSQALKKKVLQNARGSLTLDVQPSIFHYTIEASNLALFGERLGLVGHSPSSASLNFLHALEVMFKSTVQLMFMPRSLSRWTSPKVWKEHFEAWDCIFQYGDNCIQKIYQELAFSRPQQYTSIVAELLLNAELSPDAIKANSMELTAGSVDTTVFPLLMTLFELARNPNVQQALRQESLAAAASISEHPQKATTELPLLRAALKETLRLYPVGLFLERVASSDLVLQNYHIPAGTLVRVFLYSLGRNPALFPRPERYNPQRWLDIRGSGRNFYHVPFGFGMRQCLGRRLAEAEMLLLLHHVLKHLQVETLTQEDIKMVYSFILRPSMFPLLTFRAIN

[6] = target: T5, Aromatase (Homo sapiens, UniProt P11511); assay: as §2; conditions: 0.5 µM
T5 sequence (P11511 whole entry): T3 sequence (P11511 whole entry)

[7] = target: T6, CYP17 (Homo sapiens, UniProt P05093); assay: as §1; conditions: recombinant human CYP17 expressed in Escherichia coli, probe progesterone
T6 sequence (P05093 whole entry): T1 sequence (P05093 whole entry)

Row | Compound | Ratio IC50 [1] | inhibition (INH) [2] | IC50 [3] | inhibition at 0.5 µM [4] | IC50 [5] | inhibition (INH) [6] | inhibition at 2 µM [7]
1 | c1ccc(-c2cccc(Cn3ccnc3)c2)cc1 | 5.8 | Not Active | 265 nM | 38% | 46 nM | – | –
2 | c1ccc(-c2cc(Cn3cnc4ccccc43)cc(-c3ccccc3)c2)cc1 | – | Not Active | > 1000 nM | – | > 1000 nM | Not Active | –
3 | c1ccc2c(c1)ncn2CC12CC3CC(CC(C3)C1)C2 | – | Not Active | – | 12% | 75 nM | – | –
4 | c1ccc(-c2ccc(Cn3ccnc3)cn2)cc1 | 18 | – | – | 0% | – | – | –
5 | c1ccc(C(c2ccccc2)(c2ccccc2)n2ccnc2)cc1 | 3.4 | Not Active | 11 nM | 38% | 3 nM | – | –
6 | c1ccc(-c2ccc(Cn3ccnc3)o2)cc1 | 8.1 | – | 372 nM | 38% | 46 nM | – | 0%
7 | c1ccc(C(CCn2cnc3ccccc32)(c2ccccc2)c2ccccc2)cc1 | – | Not Active | > 1000 nM | – | > 1000 nM | Not Active | –
8 | Cc1cc(C)cc(Cn2ccnc2)c1 | 2.4 | Not Active | 77 nM | 38% | 32 nM | – | –
9 | c1ccc(-c2cc(Cn3ccnc3)cc(-c3ccccc3)c2)cc1 | 2.6 | – | 332 nM | 12% | 128 nM | – | 52%
10 | Cc1ccc(Cn2cnc3ccccc32)cc1 | 1 | Not Active | 520 nM | – | 500 nM | Not Active | –
11 | c1ccc(Cn2ccnc2)cc1 | 3.4 | Not Active | 456 nM | – | 135 nM | Not Active | –
12 | Cc1cc(C)c(Cn2cnc3ccccc32)c(C)c1 | – | Not Active | > 1000 nM | – | > 1000 nM | Not Active | –
13 | c1ccc(-c2ccccc2Cn2ccnc2)cc1 | 2.6 | Not Active | 39 nM | 38% | 15 nM | – | –
14 | c1ccc(C(Cn2ccnc2)(c2ccccc2)c2ccccc2)cc1 | 2 | Not Active | 8 nM | 38% | 4 nM | – | –
15 | CC(C)(C(=O)c1cccnc1)c1cccnc1 [METYRAPONE] | – | Not Active | – | – | – | Not Active | –
16 | Cc1cccc(Cn2ccnc2)c1 | 2.3 | Not Active | 110 nM | 12% | 48 nM | – | –
17 | c1ccc(-c2cccc(Cn3cnc4ccccc43)c2)cc1 | 6 | Not Active | 2230 nM | – | 369 nM | Not Active | –
18 | c1ccc(C(c2ccccc2)(c2ccccc2)n2cnc3ccccc32)cc1 | – | Not Active | > 1000 nM | – | > 1000 nM | Not Active | –

Row | Compound | Ratio IC50 [1] | inhibition (INH) [2] | IC50 [3] | inhibition at 0.5 µM [4] | IC50 [5] | inhibition (INH) [6] | inhibition at 2 µM [7]
19 | c1ccc(C(CCn2ccnc2)(c2ccccc2)c2ccccc2)cc1 | 3.6 | Not Active | 290 nM | 38% | 80 nM | – | –
20 | c1cn(CC23CC4CC(CC(C4)C2)C3)cn1 | 5.9 | – | 30 nM | 12% | 5 nM | – | –
21 | Cc1cc(C)c(Cn2ccnc2)c(C)c1 | 1.3 | Not Active | 30 nM | – | 24 nM | Not Active | –
22 | Cc1ccccc1Cn1ccnc1 | 1 | Not Active | 62 nM | 12% | 61 nM | – | –
23 | c1ccc(-c2ccccc2Cn2cnc3ccccc32)cc1 | – | Not Active | > 1000 nM | – | > 1000 nM | Not Active | –
24 | CCOC(=O)c1cncn1[C@H](C)c1ccccc1 [ETOMIDATE] | 0.5 | Not Active | 0.1 nM | – | – | Not Active | –
25 | c1ccc(C(Cn2cnc3ccccc32)(c2ccccc2)c2ccccc2)cc1 | – | Not Active | > 1000 nM | – | > 1000 nM | Not Active | –
26 | c1ccc(Cn2cnc3ccccc32)cc1 | 3.5 | Not Active | 865 nM | – | 246 nM | Not Active | –
27 | Cc1ccc(Cn2ccnc2)cc1 | 1.2 | Not Active | 320 nM | – | 258 nM | Not Active | –
28 | Cc1cc(C)cc(Cn2cnc3ccccc32)c1 | 3.4 | Not Active | 632 nM | – | 188 nM | Not Active | –
29 | Clc1ccc(Cn2ccnc2)cc1 | 0.3 | Not Active | 46 nM | – | 140 nM | Not Active | –
30 | Cc1c(C)c(C)c(Cn2ccnc2)c(C)c1C | 4.6 | Not Active | 23 nM | 12% | 5 nM | – | –
31 | Clc1ccc(Cn2cnc3ccccc32)cc1 | 0.2 | Not Active | 107 nM | – | 635 nM | Not Active | –
32 | c1ccc(-c2ccc(Cn3cnc4ccccc43)cc2)cc1 | 10 | Not Active | 1900 nM | – | 197 nM | Not Active | –
33 | c1ccc(-c2csc(Cn3ccnc3)c2)cc1 | 15 | – | 277 nM | 72% | 19 nM | – | –
34 | Cc1ccccc1Cn1cnc2ccccc21 | 0.3 | Not Active | 262 nM | – | 779 nM | Not Active | –
35 | Cc1cccc(Cn2cnc3ccccc32)c1 | 1.6 | Not Active | 309 nM | – | 194 nM | Not Active | –
36 | Cc1c(C)c(C)c(Cn2cnc3ccccc32)c(C)c1C | – | Not Active | > 1000 nM | – | > 1000 nM | Not Active | –
